Results on four compounds are retold here after US20130203718A1 (priority 2010, published 2013).

SMILES strings stand for the structures. Entries after “also recorded” stand apart in the source; their conditions may differ.

This test addresses T1, hPRB (Homo sapiens, UniProt P06401).
T1 sequence (P06401 1-933): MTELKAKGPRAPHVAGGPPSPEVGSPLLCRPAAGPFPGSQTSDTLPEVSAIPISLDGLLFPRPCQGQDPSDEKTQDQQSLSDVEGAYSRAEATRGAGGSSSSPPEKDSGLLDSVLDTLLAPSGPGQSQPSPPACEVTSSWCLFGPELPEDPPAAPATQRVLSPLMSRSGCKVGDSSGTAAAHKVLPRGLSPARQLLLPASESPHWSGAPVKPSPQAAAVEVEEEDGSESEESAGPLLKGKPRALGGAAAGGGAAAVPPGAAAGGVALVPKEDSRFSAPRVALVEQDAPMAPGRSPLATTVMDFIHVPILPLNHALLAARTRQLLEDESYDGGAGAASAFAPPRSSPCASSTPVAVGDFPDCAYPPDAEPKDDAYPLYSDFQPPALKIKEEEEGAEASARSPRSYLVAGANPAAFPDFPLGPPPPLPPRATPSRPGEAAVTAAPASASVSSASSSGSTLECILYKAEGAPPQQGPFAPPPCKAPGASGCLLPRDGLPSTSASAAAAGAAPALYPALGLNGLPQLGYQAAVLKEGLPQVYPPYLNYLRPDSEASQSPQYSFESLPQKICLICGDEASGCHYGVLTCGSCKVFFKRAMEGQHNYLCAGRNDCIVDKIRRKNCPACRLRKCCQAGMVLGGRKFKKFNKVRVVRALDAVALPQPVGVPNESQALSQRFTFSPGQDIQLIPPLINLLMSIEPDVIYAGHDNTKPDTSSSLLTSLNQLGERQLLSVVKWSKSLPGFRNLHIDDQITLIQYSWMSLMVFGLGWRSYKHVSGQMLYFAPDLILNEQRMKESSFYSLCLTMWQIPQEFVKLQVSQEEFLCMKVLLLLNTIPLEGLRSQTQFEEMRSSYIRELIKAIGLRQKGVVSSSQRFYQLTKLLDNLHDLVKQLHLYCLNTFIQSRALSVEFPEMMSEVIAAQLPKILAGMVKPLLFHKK
The test can be described thus: PR transactivation assay (GRE2-Luc) in HEK293T cells transiently expressing hPRB. Conditions: APRn 1 μM. The arrangement: expressed in transfected cells; host or cells: HEK 293T. The class given is cell-based. The essentials: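 HEK293T cells transiently transfected by calcium phosphate with human PRB, GRE2-Luc reporter and β-gal control, grown in dextran-charcoal-treated FCS. Luciferase measured in lysates; agonist efficacy at 1 μM compound as ratio of luciferase activities ×100, antagonist efficacy as 100 minus that ratio; mean±SEM of 3-5 experiments.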

Where [1] appears, read: series 2-4, stated for both HEK293T and MDA-MB-231 iPRAB cells, FIGS. 3-8.
Setting [2] is: series 1 (no C3 substituent), HEK293T, FIG. 1.

`CC(=O)[C@H]1CC[C@H]2[C@@H]3CC=C4C[C@@H](F)CC[C@]4(C)[C@H]3CC[C@]12C` [APR-16, 3β-Fluoropregn-5-en-20-one]: under setting [1], the “hPRB agonist/antagonist character (in words)” value is recorded as “efficient hPRB antagonists; also recorded: agonist activity of this molecule is completely abolished”.
On to `CC#C[C@]1(O)CCC2C3CC[C@H]4CCCC[C@]4(C)C3CC[C@@]21C` (stereo partly drawn) [APR-42, 17α-(1-Propynyl)-5α-androstan-17β-ol], for which, under setting [2], the “hPRB agonist/antagonist character (in words)” value is recorded as “full antagonists”.
Turning to `C[C@]12CCC3C(CC=C4C[C@@H](F)CC[C@@H]43)C1CCC2=O` (stereo partly drawn) [APR-47, 3β-Fluoro-19-nor-androst-5-en-17-one], the “hPRB agonist/antagonist character (in words)” value under setting [1] was “efficient hPRB antagonists”.
On to `CC#C[C@]1(O)CCC2C3CC[C@H]4CCCC[C@@H]4C3CC[C@@]21C` (stereo partly drawn) [APR-54, 17α-(1-Propynyl)-19-nor-5-androstan-17β-ol], for which the “hPRB agonist/antagonist character (in words)” value under setting [2] was “full antagonists”.
